# Assay: FFA solubility at different formulation pH at constant PS20 concentration, fit to modified Henderson-Hasselbalch equation
# Assay type: physicochemical
# Conditions: constant of the 'pH term' of the FFA solubility model (Equation 1); for solubility: formulation containing PS20, aqueous with cosolvent or surfactant or cyclodextrin, read-out: Solubility of the non-ionized FFA (β1); for pKa: formulation containing polysorbate 20 (PS20), read-out: Experimentally determined pKa (β2)
# Experimental: To create the model, first, FFA solubility was measured at different formulation pH's at a constant PS20 concentration. […] Second, FFA solubility was measured at different PS20 concentrations at a constant pH.
solubility [µg/mL],pKa,SMILES
9.97,5.71,"CCCCCCCCCCCC(=O)O [Lauric (C12) Acid, lauric acid]"
3.87,6.67,"CCCCCCCCCCCCCC(=O)O [Myristic (C14) Acid, myristic acid]"

# — patent US12691178B2, “Polysorbate mixtures having modified fatty acid ester distribution” (Genentech, Inc., priority 2020, dated 2026)
